Tested on: CRABP-2 expression of fibroblasts
Assay: CRABP-2 protein expression in fibroblasts (Western blot, densitometric scanning)
Format: cell-based, Human
Conditions: for CRABP-2 levels: 4 h anise pre-treatment, 48 h incubation, +/− SD of triplicates; for As % of control: control as 100%
Method: Dried […] seeds (Pimpinella anisum) was purchased from local markets and powdered in a dry grinder. The alcoholic extract of anise seed was prepared by stirring 1 gram of the dry anise seed powder in 10 ml of ethanol from the list of solvents given below for 4 to 24 hrs at room temperature. The extracts were clarified by filtration and centrifugation, to obtain a 10% extract of anise seed in the particular solvent. Human adult fibroblasts obtained from sun-protected inner arm of 25-30 year […] volunteer were used in this. Cells were grown in 1:1 DMEM/Hams F12 media containing 10% FBS, maintained at 37C in a 5% CO2 atmosphere under normal atmospheric oxygen tension. Third passage adult fibroblasts were grown in DMEM media with 10% FBS in 12-well plates at a seeding density of 40,000 cells/ml/well. The cells at 80% confluence were rinsed in serum free and phenol red free (PRF) DMEM media twice. Pre-treatment with anise seed extract for 4 hours was conducted and then dosed with retinoids and was incubated for 48 hours. After the incubation, the wells were washed twice with 1×PBS and the cell monolayer was harvested in 100 μl cell lysis buffer (contains 1×PBS, 1% TritonX, 0.5% sodium deoxycholate, 0.1% SDS containing protease inhibitor (10 mg/ml PMSF in isopropanol, 10 μl/ml). The suspension was spun at 14000 rpm for 10 minutes, the supernatant collected and an aliquot of this supernatant was used for protein quantification. Protein concentration was determined using Pierce protein kit. The remainder of 100 μl supernatant (cell lysate) was denatured in a mixture of 40 μl sample buffer (NOVEX) and 0.5% Beta mercaptoethanol (BME) and by boiling the sample for 5 minutes. Equal amount of protein was then loaded onto 16% Tris-glycine gels for protein analysis by SDS page and Western Immuno-blotting for CRABP-2 protein expression. To measure the levels of CRABP-2 in the fibroblasts prepared as described above, the cell supernatant was re-suspended in 4× sample buffer and 0.5% BME, boiled for 5 minutes and used for western blotting. Equal amounts of protein were loaded onto 16% Tris-glycine gels for CRABP-2 protein analysis by SDS page and Western Immuno-blotting. The gels were transferred to nitrocellulose blots and Western Blotting was carried out using monoclonal antibodies to CRABP-2 according to standard procedures. The CRABP-2 protein band was visualized in the Western Blots using the chemiluminescence system obtained from Santa Cruz Biotechnology (SantaCruz, Calif.). The bands in the film were quantitated by densitometric scanning, the data from triplicate samples were calculated as % of control and expressed in the following tables as % increase over control (with control as 100%) +/−SD of triplicates.

[1] = Example 1: 100 nM retinoids and 0.1 μl of a 10% anise seed extract
[2] = Example 2: 100 nM retinoids and 1.0 μl of a 10% anise seed extract
[3] = Example 3: 500 nM retinoids and 0.1 μl of a 10% anise seed extract
[4] = Example 4: 500 nM retinoids and 1.0 μl of a 10% anise seed extract

Compound | CRABP-2 levels [1] | As % of control [1] | CRABP-2 levels [2] | As % of control [2] | CRABP-2 levels [3] | As % of control [3] | CRABP-2 levels [4] | As % of control [4]
CCCCCCCCCCCCCCCC(=O)OC/C=C(C)/C=C/C=C(C)/C=C/C1=C(C)CCCC1(C)C [Retinyl Palmitate] | 1.12 +/− 0.15 | 262 +/− 37 % of control | 1.12 +/− 0.15 | 262 +/− 37 % of control | 0.83 +/− 0.5 | 193 % of control | 0.83 +/− 0.5 | 193 % of control
CC1=C(/C=C/C(C)=C/C=C/C(C)=C/CO)C(C)(C)CCC1 [Retinol] | 1.36 +/− 0.17 | 317 +/− 39 % of control | 1.36 +/− 0.17 | 317 +/− 39 % of control | 0.66 +/− 0.19 | 154 +/− 44 % of control | 0.66 +/− 0.19 | 154 +/− 44 % of control
CCCCC/C=C\C/C=C\CCCCCCCC(=O)OC/C=C(C)/C=C/C=C(C)/C=C/C1=C(C)CCCC1(C)C [Retinyl linoleate] | 1.23 +/− 0.28 | 286 +/− 65 % of control | 1.23 +/− 0.28 | 286 +/− 65 % of control | 0.99 +/− 0.13 | 231 +/− 30 % of control | 0.99 +/− 0.13 | 231 +/− 30 % of control
CC(=O)OC/C=C(C)/C=C/C=C(C)/C=C/C1=C(C)CCCC1(C)C [Retinyl acetate] | 2.38 +/− 0.81 | 553 % of control | 2.38 +/− 0.81 | 553 % of control | 1.02 +/− 0.56 | 237 % of control | 1.02 +/− 0.56 | 237 % of control

— US6395286B1, “Cosmetic compositions containing anise extract and retinoids” (Unilever Home & Personal Care USA, division of Conopco, Inc., priority 1999, dated 2002)
